Data published in patent US20250136568A1, “FUSED HETEROCYCLIC COMPOUNDS AS PI3KALPHA INHIBITORS” (Nanjing Zenshine Pharmaceuticals Co., Ltd., priority 2021, published 2025).
Where two headings read alike, the source gives them in different places.

Experiments:
Format in all cases: cell-based
[1] = system: PI3Kα wide type cell line SK-BR-3; test: Cell Proliferation IC50 Assay (CellTiter-Glo), SK-BR-3; details: SK-BR-3 (PI3Kα wild type), 72 hours, CellTiter-Glo, read-out: IC50 (μM) SK-BR-3
How it was run: (§1)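 Read-out was CellTiter-Glo luminescence after 72 h of compound exposure at 37 °C, 5% CO2. Cells had been plated overnight in complete medium before the compound was added at a 200-fold final dilution. IC50 was derived from percent inhibition.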

[2] = system: PI3Kα H1047R mutation cell line MDA-MB-453; test: Cell Proliferation IC50 Assay (CellTiter-Glo), MDA-MB-453; details: MDA-MB-453 (H1047R), 72 hours, CellTiter-Glo, read-out: IC50 (μM) MDA-MB-453
Description: PI3Kα H1047R mutation cell line T-47D and MDA-MB-453, E545K mutation cell line MDA-MB-361 and PI3Kα wide type cell line SK-BR-3 were purchased from Cobioer Biotech (cat. no CBP60397, CBP60386, CBP60383 and CBP60413 respectively). The CellTiter-Glo Direct Cell Proliferation Assay Kit was purchased from Prornega (cat. No. G7573)
For cell proliferation assay in each cell line: • a. Prepare complete medium (R PMI 1640, DMEM or McCoys): Add FBS and appropriate additives according to the information sheet provided by the vendor. Mix gently. • b. Prepare single cell suspension and count the cell numbers and adjust cells to appropriate density. • c. Add 80 μL of cell suspension to 96-well opaque-walled clear bottom plates according to the planned plate layout and place the plates in the CO2 incubator overnight. • d. Prepare intermediate plate: 10 μl of diluted test compounds or staurosporine solution (200×) is added to a 96 deep well plate. Then 390 μl of culture medium without FBS is added to the respective wells. • e. Transfer 20 μL of the solutions from the above intermediate plate to the wells of the plate prepared containing 80 μL of the culture medium and cells. The total dilution is 200 folds. • f. The cells were then incubated at 5% CO2, 37° C. for 72 hours. • g. Equilibrate the plate and its contents to room temperature for approximately 30 minutes. • h. Add 100 μL of CellTiter-Glo reagent to the assay plate • i. Mix contents for 10 minutes on an orbital shaker to induce cell lysis. • j. Allow the plate to incubate at room temperature for 10 minutes to stabilize luminescent signal, • k. Paste the clear bottom with white back seal and record luminescence with Varioskan LUX plate reader.
Inhibition % and IC50 value were calculated by the formula described below: […]

[3] = system: PI3Kα H1047R mutation cell line T-47D; test: Cell Proliferation IC50 Assay (CellTiter-Glo), T-47D; details: T47D (H1047R), 72 hours, CellTiter-Glo, read-out: IC50 (μM) T47D
How it was run: as §1

Question: Which IC50 ([1]; Homo sapiens) does the source give for `Cc1cc([C@H](C)Nc2ccccc2C(=O)O)c2oc(-c3ccc4c(c3)CN(C)C4=O)c(C)c(=O)c2c1` (single isomer, unassigned) [Example 20A] here?
Answer: > 10 µM

Question: And the IC50 ([2]; Homo sapiens)?
Answer: > 10 µM

Question: What about the IC50 ([3]; Homo sapiens, T47D, 72 h) of the same compound?
Answer: > 10 µM

Question: Which results are given for `Cc1cc([C@@H](C)Nc2ccccc2C(=O)O)c2oc(-c3ccc4c(c3)CN(C)C4=O)c(C)c(=O)c2c1` (single isomer, unassigned) [Example 20B]?
Answer: IC50 ([1]; Homo sapiens): > 10 µM; IC50 ([2]; Homo sapiens): 0.07 µM; IC50 ([3]; Homo sapiens, T47D, 72 h): 0.048 µM

Question: How did the IC50 ([1]; Homo sapiens) turn out when `Cc1cc([C@@H](C)Nc2ccccc2C(=O)O)c2oc(-c3ccc(N4CCOCC4)cc3)c(C)c(=O)c2c1` (single isomer, unassigned) [Example 53A] was run?
Answer: > 10 µM

Question: And the IC50 ([2]; Homo sapiens)?
Answer: 0.12 µM

Question: What about the IC50 ([3]; Homo sapiens, T47D, 72 h) of the same compound?
Answer: 0.09 µM

Question: How did the IC50 [1] turn out when `C[C@H](Nc1ccccc1C(=O)O)c1cc(Cl)cc2c(=O)cc(-c3ccc4nn(C)cc4c3)oc12` (single isomer, unassigned) [Example 98A] was run?
Answer: > 10 µM

Question: What about the IC50 [2] of the same compound?
Answer: 0.09 µM

Question: What about the IC50 [3] of the same compound?
Answer: 0.038 µM

Question: Which results are given for `CC(=O)N1CCN(c2ccc(-c3oc4c([C@H](C)Nc5ccccc5C(=O)O)cc(C)cc4c(=O)c3C)cc2)CC1` (single isomer, unassigned) [Example 123B]?
Answer: IC50 ([1]; Homo sapiens): > 10 µM; IC50 ([2]; Homo sapiens): > 10 µM; IC50 ([3]; Homo sapiens, T47D, 72 h): > 10 µM

Question: Which IC50 ([1]; Homo sapiens) does the source give for `Cc1cc(C(C)Nc2ccccc2C(=O)O)c2oc(-c3ccccc3)cc(=O)c2c1` (stereo not shown) [Example 1, 2-((1-(6-methyl-4-oxo-2-phenyl-4H-chromen-8-yl)ethyl)amino)benzoic acid] here?
Answer: > 10 µM

Question: What about the IC50 ([2]; Homo sapiens) of the same compound?
Answer: 0.7 µM

Question: What about the IC50 ([3]; Homo sapiens, T47D, 72 h) of the same compound?
Answer: 0.33 µM

Question: How did the IC50 ([1]; Homo sapiens) turn out when `Cc1ccc(-c2cc(=O)c3cc(C)cc(C(C)Nc4ccccc4C(=O)O)c3o2)cc1` (stereo not shown) [Example 2, 2-((1-(6-methyl-4-oxo-2-(p-tolyl)-4H-chromen-8-yl)ethyl)amino)benzoic acid] was run?
Answer: > 10 µM

Question: And the IC50 ([2]; Homo sapiens)?
Answer: 0.39 µM

Question: And the IC50 ([3]; Homo sapiens, T47D, 72 h)?
Answer: 0.16 µM

Question: What does the source list for `Cc1cc(C(C)Nc2ccccc2C(=O)O)c2oc(-c3ccc(Cl)cc3)cc(=O)c2c1` (stereo not shown) [Example 3, 2-((1-(2-(4-chlorophenyl)-6-methyl-4-oxo-4H-chromen-8-yl)ethyl)amino)benzoic acid]?
Answer: IC50 ([1]; Homo sapiens): > 10 µM; IC50 ([2]; Homo sapiens): 0.56 µM; IC50 ([3]; Homo sapiens, T47D, 72 h): 0.75 µM

Question: `Cc1cc(C(C)Nc2ccccc2C(=O)O)c2oc(-c3ccc4c(c3)OCO4)cc(=O)c2c1` (stereo not shown) [Example 4, 2-((1-(2-(benzo[d][1,3]dioxol-5-yl)-6-methyl-4-oxo-4H-chromen-8-yl)ethyl)amino)benzoic acid] was tested. Which IC50 ([1]; Homo sapiens) did it give?
Answer: > 10 µM

Question: What about the IC50 ([2]; Homo sapiens) of the same compound?
Answer: 0.75 µM

Question: What about the IC50 ([3]; Homo sapiens, T47D, 72 h) of the same compound?
Answer: 0.56 µM

Question: What does the source list for `Cc1cc(C(C)Nc2ccccc2C(=O)O)c2oc(-c3ccc4c(c3)CN(C)C4=O)cc(=O)c2c1` (stereo not shown) [Example 6, 2-((1-(6-methyl-2-(2-methyl-1-oxoisoindolin-5-yl)-4-oxo-4H-chromen-8-yl)ethyl)amino)benzoic acid]?
Answer: IC50 ([1]; Homo sapiens): > 10 µM; IC50 ([2]; Homo sapiens): 0.29 µM; IC50 ([3]; Homo sapiens, T47D, 72 h): 0.23 µM

Question: What does the source list for `Cc1cc(C(C)Nc2ccccc2C(=O)O)c2oc(-c3cnn(C)c3)cc(=O)c2c1` (stereo not shown) [Example 10, 2-((1-(6-methyl-2-(1-methyl-1H-pyrazol-4-yl)-4-oxo-4H-chromen-8-yl)ethyl)amino)benzoic acid]?
Answer: IC50 ([1]; Homo sapiens): > 10 µM; IC50 ([2]; Homo sapiens): 2.44 µM; IC50 ([3]; Homo sapiens, T47D, 72 h): 0.86 µM

Question: Which results are given for `Cc1cc(C(C)Nc2ccccc2C(=O)O)c2oc(-c3cnn(CC(C)(C)O)c3)cc(=O)c2c1` (stereo not shown) [Example 11, 2-((1-(2-(1-(2-hydroxy-2-methylpropyl)-1H-pyrazol-4-yl)-6-methyl-4-oxo-4H-chromen-8-yl)ethyl)amino)benzoic acid]?
Answer: IC50 ([1]; Homo sapiens): > 10 µM; IC50 ([2]; Homo sapiens): 2.49 µM; IC50 ([3]; Homo sapiens, T47D, 72 h): 1.98 µM

Question: What does the source list for `Cc1cc(C(C)Nc2ccccc2C(=O)O)c2oc(C3CCN(C(=O)OC(C)(C)C)CC3)cc(=O)c2c1` (stereo not shown) [Example 13, 2-((1-(2-(1-(tert-butoxycarbonyl)piperidin-4-yl)-6-methyl-4-oxo-4H-chromen-8-yl)ethyl)amino)benzoic acid]?
Answer: IC50 ([1]; Homo sapiens): > 10 µM; IC50 ([2]; Homo sapiens): 2.29 µM; IC50 ([3]; Homo sapiens, T47D, 72 h): 1.33 µM

Question: What does the source list for `Cc1cc(C(C)Nc2ccccc2C(=O)O)c2oc(C3=CCN(C(=O)OC(C)(C)C)CC3)cc(=O)c2c1` (stereo not shown) [Example 14, 2-((1-(2-(1-(tert-butoxycarbonyl)-1,2,3,6-tetrahydropyridin-4-yl)-6-methyl-4-oxo-4H-chromen-8-yl)ethyl)amino)benzoic acid]?
Answer: IC50 ([1]; Homo sapiens): > 10 µM; IC50 ([2]; Homo sapiens): 1.27 µM; IC50 ([3]; Homo sapiens, T47D, 72 h): 1 µM

Question: For `Cc1cc(C(C)Nc2ccccc2C(=O)O)c2oc(C3CCNCC3)cc(=O)c2c1` (stereo not shown) [Example 15, 2-((1-(6-methyl-4-oxo-2-(piperidin-4-yl)-4H-chromen-8-yl)ethyl)amino)benzoic acid], which IC50 ([1]; Homo sapiens) is on record?
Answer: > 10 µM

Question: And the IC50 ([2]; Homo sapiens)?
Answer: > 10 µM

Question: And the IC50 ([3]; Homo sapiens, T47D, 72 h)?
Answer: > 10 µM

Question: What does the source list for `Cc1cc(C(C)Nc2ccccc2C(=O)O)c2oc(C3CCN(c4ccccc4)CC3)cc(=O)c2c1` (stereo not shown) [Example 18, 2-((1-(6-methyl-4-oxo-2-(1-phenylpiperidin-4-yl)-4H-chromen-8-yl)ethyl)amino)benzoic acid]?
Answer: IC50 ([1]; Homo sapiens): > 10 µM; IC50 ([2]; Homo sapiens): 0.77 µM; IC50 ([3]; Homo sapiens, T47D, 72 h): 0.31 µM

Question: `Cc1cc(C(C)Nc2ccccc2C(=O)O)c2oc(C3=CCN(c4ccccc4)CC3)cc(=O)c2c1` (stereo not shown) [Example 19, 2-((1-(6-methyl-4-oxo-2-(1-phenyl-1,2,3,6-tetrahydropyridin-4-yl)-4H-chromen-8-yl)ethyl)amino)benzoic acid] was tested. Which IC50 ([1]; Homo sapiens) did it give?
Answer: > 10 µM

Question: What about the IC50 ([2]; Homo sapiens) of the same compound?
Answer: 1.39 µM

Question: What about the IC50 ([3]; Homo sapiens, T47D, 72 h) of the same compound?
Answer: 0.35 µM

Question: `Cc1cc(C(C)Nc2ccccc2C(=O)O)c2oc(-c3ccc4c(c3)CN(C)C4=O)c(C)c(=O)c2c1` (stereo not shown) [Example 20, 2-((1-(3,6-dimethyl-2-(2-methyl-1-oxoisoindolin-5-yl)-4-oxo-4H-chromen-8-yl)ethyl)amino)benzoic acid] was tested. Which IC50 ([1]; Homo sapiens) did it give?
Answer: > 10 µM

Question: What about the IC50 ([2]; Homo sapiens) of the same compound?
Answer: 0.18 µM

Question: What about the IC50 ([3]; Homo sapiens, T47D, 72 h) of the same compound?
Answer: 0.12 µM

Question: What does the source list for `Cc1cc(C(C)Nc2ccc(Cl)nc2C(=O)O)c2oc(-c3ccc4c(c3)CN(C)C4=O)c(C)c(=O)c2c1` (stereo not shown) [Example 22, 6-chloro-3-((1-(3,6-dimethyl-2-(2-methyl-1-oxoisoindolin-5-yl)-4-oxo-4H-chromen-8-yl)ethyl)amino)picolinic acid]?
Answer: IC50 ([1]; Homo sapiens): 5.07 µM; IC50 ([2]; Homo sapiens): 0.63 µM; IC50 ([3]; Homo sapiens, T47D, 72 h): 0.72 µM

Question: For `Cc1cc(C(C)Nc2ccccc2C(=O)O)c2oc(-c3ccc4c(c3)C(=O)N(C)C4)cc(=O)c2c1` (stereo not shown) [Example 23, 2-((1-(6-methyl-2-(2-methyl-3-oxoisoindolin-5-yl)-4-oxo-4H-chromen-8-yl)ethyl)amino)benzoic acid], which IC50 ([1]; Homo sapiens) is on record?
Answer: > 10 µM

Question: And the IC50 ([2]; Homo sapiens)?
Answer: 6.3 µM

Question: And the IC50 ([3]; Homo sapiens, T47D, 72 h)?
Answer: 3.2 µM

Question: Which results are given for `Cc1cc(C(C)Nc2ccccc2C(=O)O)c2oc(-c3cc4ccccc4[nH]3)cc(=O)c2c1` (stereo not shown) [Example 25, 2-((1-(2-(1H-indol-2-yl)-6-methyl-4-oxo-4H-chromen-8-yl)ethyl)amino)benzoic acid]?
Answer: IC50 ([1]; Homo sapiens): > 10 µM; IC50 ([2]; Homo sapiens): 0.32 µM; IC50 ([3]; Homo sapiens, T47D, 72 h): 0.27 µM

Question: What does the source list for `Cc1cc(C(C)Nc2ccccc2C(=O)O)c2oc(-c3cccs3)cc(=O)c2c1` (stereo not shown) [Example 26, 2-((1-(6-methyl-4-oxo-2-(thiophen-2-yl)-4H-chromen-8-yl)ethyl)amino)benzoic acid]?
Answer: IC50 ([1]; Homo sapiens): > 10 µM; IC50 ([2]; Homo sapiens): 0.83 µM; IC50 ([3]; Homo sapiens, T47D, 72 h): 0.66 µM

Question: How did the IC50 ([1]; Homo sapiens) turn out when `Cc1cc([C@@H](C)Nc2ccccc2C(=O)O)c2oc(-c3ccnc(N4CCOCC4)c3)c(C)c(=O)c2c1` [Example 133, (R)-2-((1-(3,6-dimethyl-2-(2-morpholinopyridin-4-yl)-4-oxo-411-chromen-8-yl)ethyl)amino)benzoic acid] was run?
Answer: > 10 µM

Question: What about the IC50 ([2]; Homo sapiens) of the same compound?
Answer: 1.18 µM

Question: What does the source list for `Cc1cc([C@@H](C)Nc2ccccc2C(=O)O)c2oc(-c3ccnc(C(=O)N(C)C)c3)c(C)c(=O)c2c1` [Example 134, (R)-2-((1-(2-(2-(dimethylcarbamoyl)pyridin-4-yl)-3,6-dimethyl-4-oxo-4H-chromen-8-yl)ethyl)amino)benzoic acid]?
Answer: IC50 ([1]; Homo sapiens): > 10 µM; IC50 ([2]; Homo sapiens): 0.56 µM
